According to ChEMBL document CHEMBL1156106 (J Med Chem, 2009):

What was measured:
Rattus norvegicus [1] = test: Effect on behavioural activity in ip dosed rat assessed as cocaine-induced lever response pretreated with cocaine by drug-discrimination studies; format: functional
Rattus norvegicus [2] = test: Effect on behavioural activity in rat assessed as cocaine-induced lever response at 2.5 mg/kg, po pretreated with cocaine for 45 mins by drug-discrimination studies; format: functional
Rattus norvegicus [3] = test: Effect on behavioural activity in rat assessed as cocaine-induced lever response at 2.5 mg/kg, po pretreated with cocaine for 90 mins by drug-discrimination studies; format: functional
Rattus norvegicus [4] = test: Effect on behavioural activity in rat assessed as cocaine-induced lever response at 2.5 mg/kg, po pretreated with cocaine for 180 mins by drug-discrimination studies; format: functional
Rattus norvegicus [5] = test: Effect on behavioural activity in rat assessed as cocaine-induced lever response at 2.5 mg/kg, po pretreated with cocaine for 360 mins by drug-discrimination studies; format: functional
Rattus norvegicus [6] = test: Effect on behavioural activity in rat assessed as cocaine-induced lever response at 5 mg/kg, po pretreated with cocaine for 45 mins by drug-discrimination studies; format: functional
Rattus norvegicus [7] = test: Effect on behavioural activity in rat assessed as cocaine-induced lever response at 5 mg/kg, po pretreated with cocaine for 90 mins by drug-discrimination studies; format: functional
Rattus norvegicus [8] = test: Effect on behavioural activity in rat assessed as cocaine-induced lever response at 5 mg/kg, po pretreated with cocaine for 180 mins by drug-discrimination studies; format: functional
Rattus norvegicus [9] = test: Effect on behavioural activity in rat assessed as cocaine-induced lever response at 5 mg/kg, po pretreated with cocaine for 360 mins by drug-discrimination studies; format: functional
Rattus norvegicus [10] = test: Effect on behavioural activity in rat assessed as cocaine-induced lever response at 10 mg/kg, po pretreated with cocaine for 45 mins by drug-discrimination studies; format: functional
Rattus norvegicus [11] = test: Effect on behavioural activity in rat assessed as cocaine-induced lever response at 10 mg/kg, po pretreated with cocaine for 90 mins by drug-discrimination studies; format: functional
Rattus norvegicus [12] = test: Effect on behavioural activity in rat assessed as cocaine-induced lever response at 10 mg/kg, po pretreated with cocaine for 180 mins by drug-discrimination studies; format: functional
Rattus norvegicus [13] = test: Effect on behavioural activity in rat assessed as cocaine-induced lever response at 10 mg/kg, po pretreated with cocaine for 360 mins by drug-discrimination studies; format: functional
Rattus norvegicus [14] = test: Effect on behavioural activity in rat assessed as cocaine-induced lever response at 25 mg/kg, po pretreated with cocaine for 45 mins by drug-discrimination studies; format: functional
Rattus norvegicus [15] = test: Effect on behavioural activity in rat assessed as cocaine-induced lever response at 25 mg/kg, po pretreated with cocaine for 90 mins by drug-discrimination studies; format: functional
Rattus norvegicus [16] = test: Effect on behavioural activity in rat assessed as cocaine-induced lever response at 25 mg/kg, po pretreated with cocaine for 180 mins by drug-discrimination studies; format: functional
Rattus norvegicus [17] = test: Effect on behavioural activity in rat assessed as cocaine-induced lever response at 25 mg/kg, po pretreated with cocaine for 360 mins by drug-discrimination studies; format: functional
Mus musculus [18] = test: Antidepressant activity in ip dosed mouse assessed as stimulation of locomotor activity; format: functional
Mus musculus [19] = test: Antidepressant activity in ip dosed mouse assessed as stimulation of locomotor activity relative to cocaine; format: functional
Mus musculus [20] = test: Antidepressant activity in ip dosed mouse assessed as time to reach peak stimulation of locomotor activity; format: functional
Mus musculus [21] = test: Antidepressant activity in ip dosed mouse assessed as duration of locomotor activity; format: functional
Rattus norvegicus [22] = test: Effect on behavioural activity in po dosed rat assessed as cocaine-induced lever response pretreated with cocaine by drug-discrimination studies; format: functional
Rattus norvegicus [23] = test: Effect on behavioural activity in rat assessed as cocaine-induced lever response at 1 mg/kg, ip pretreated with cocaine for 30 mins by drug-discrimination studies; format: functional; settings: route intraperitoneal
Rattus norvegicus [24] = test: Effect on behavioural activity in rat assessed as cocaine-induced lever response at 2.5 mg/kg, ip pretreated with cocaine for 30 mins by drug-discrimination studies; format: functional; settings: route intraperitoneal
Rattus norvegicus [25] = test: Effect on behavioural activity in rat assessed as cocaine-induced lever response at 5 mg/kg, ip pretreated with cocaine for 30 mins by drug-discrimination studies; format: functional; settings: route intraperitoneal
Rattus norvegicus [26] = test: Effect on behavioural activity in rat assessed as cocaine-induced lever response at 10 mg/kg, ip pretreated with cocaine for 30 mins by drug-discrimination studies; format: functional; settings: route intraperitoneal
Rattus norvegicus [27] = test: Effect on behavioural activity in rat assessed as cocaine-induced lever response at 25 mg/kg, ip pretreated with cocaine for 30 mins by drug-discrimination studies; format: functional; settings: route intraperitoneal
[28] = molecular target: Sodium-dependent dopamine transporter (Homo sapiens, UniProt Q01959); test: Displacement of [125I]RTI55 from cloned human DAT expressed in HEK293 cells; format: cell-based
Sodium-dependent dopamine transporter, sequence (Q01959 whole entry): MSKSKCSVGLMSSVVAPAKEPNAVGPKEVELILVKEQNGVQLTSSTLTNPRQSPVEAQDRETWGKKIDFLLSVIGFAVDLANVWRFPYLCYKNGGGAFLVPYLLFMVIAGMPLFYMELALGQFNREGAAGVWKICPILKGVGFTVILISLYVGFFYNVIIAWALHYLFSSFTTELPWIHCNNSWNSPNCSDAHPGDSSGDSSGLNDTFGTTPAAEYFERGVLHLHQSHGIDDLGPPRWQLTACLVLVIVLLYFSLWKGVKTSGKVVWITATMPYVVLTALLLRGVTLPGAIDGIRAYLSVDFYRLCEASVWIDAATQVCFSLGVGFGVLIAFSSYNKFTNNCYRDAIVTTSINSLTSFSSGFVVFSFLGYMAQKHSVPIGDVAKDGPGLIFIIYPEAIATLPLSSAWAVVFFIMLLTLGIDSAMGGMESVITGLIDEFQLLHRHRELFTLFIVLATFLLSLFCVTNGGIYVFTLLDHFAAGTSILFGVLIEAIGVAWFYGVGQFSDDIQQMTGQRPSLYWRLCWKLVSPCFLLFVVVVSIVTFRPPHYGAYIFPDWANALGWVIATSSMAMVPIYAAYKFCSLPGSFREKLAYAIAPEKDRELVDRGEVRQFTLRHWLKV

[29] = molecular target: Sodium-dependent serotonin transporter (Homo sapiens, UniProt P31645); test: biochemical; format: cell-based, HEK293
Sodium-dependent serotonin transporter, sequence (P31645 whole entry): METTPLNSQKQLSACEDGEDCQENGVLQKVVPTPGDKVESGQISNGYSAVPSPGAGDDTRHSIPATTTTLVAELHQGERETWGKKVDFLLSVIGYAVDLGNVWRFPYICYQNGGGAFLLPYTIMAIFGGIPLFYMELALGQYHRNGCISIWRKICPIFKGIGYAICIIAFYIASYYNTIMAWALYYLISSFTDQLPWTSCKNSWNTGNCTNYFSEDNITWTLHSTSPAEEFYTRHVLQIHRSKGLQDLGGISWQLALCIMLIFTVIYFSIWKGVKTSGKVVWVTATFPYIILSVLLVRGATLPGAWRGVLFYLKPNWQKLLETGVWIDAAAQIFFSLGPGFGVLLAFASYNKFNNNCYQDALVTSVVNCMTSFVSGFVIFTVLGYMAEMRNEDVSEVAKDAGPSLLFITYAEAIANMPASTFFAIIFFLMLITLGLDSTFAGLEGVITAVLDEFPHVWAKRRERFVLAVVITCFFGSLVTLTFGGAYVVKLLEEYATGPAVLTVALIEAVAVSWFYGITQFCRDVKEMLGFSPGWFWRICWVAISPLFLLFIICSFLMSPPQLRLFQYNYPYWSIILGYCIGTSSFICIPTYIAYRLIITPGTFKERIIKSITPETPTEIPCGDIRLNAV

Rattus norvegicus [30] = test: Effect on behavioural activity in rat assessed as cocaine-induced lever response at 5 mg/kg, ip pretreated with cocaine for 15 mins by drug-discrimination studies; format: functional; settings: route intraperitoneal
Rattus norvegicus [31] = test: Effect on behavioural activity in rat assessed as cocaine-induced lever response at 25 mg/kg, ip pretreated with cocaine for 15 mins by drug-discrimination studies; format: functional; settings: route intraperitoneal
Rattus norvegicus [32] = test: Effect on behavioural activity in rat assessed as cocaine-induced lever response at 50 mg/kg, ip pretreated with cocaine for 15 mins by drug-discrimination studies; format: functional; settings: route intraperitoneal
Rattus norvegicus [33] = test: Effect on behavioural activity in rat assessed as cocaine-induced lever response at 100 mg/kg, ip pretreated with cocaine for 15 mins by drug-discrimination studies; format: functional; settings: route intraperitoneal
Rattus norvegicus [34] = test: Effect on behavioural activity in rat assessed as cocaine-induced lever response at 50 mg/kg, po pretreated with cocaine for 45 mins by drug-discrimination studies; format: functional
Rattus norvegicus [35] = test: Effect on behavioural activity in rat assessed as cocaine-induced lever response at 50 mg/kg, po pretreated with cocaine for 90 mins by drug-discrimination studies; format: functional
Rattus norvegicus [36] = test: Effect on behavioural activity in rat assessed as cocaine-induced lever response at 50 mg/kg, po pretreated with cocaine for 180 mins by drug-discrimination studies; format: functional
Rattus norvegicus [37] = test: Effect on behavioural activity in rat assessed as cocaine-induced lever response at 50 mg/kg, po pretreated with cocaine for 360 mins by drug-discrimination studies; format: functional
Rattus norvegicus [38] = test: Effect on behavioural activity in rat assessed as cocaine-induced lever response at 1 mg/kg, ip pretreated with cocaine for 15 mins by drug-discrimination studies; format: functional; settings: route intraperitoneal
Rattus norvegicus [39] = test: Effect on behavioural activity in rat assessed as cocaine-induced lever response at 2.5 mg/kg, ip pretreated with cocaine for 15 mins by drug-discrimination studies; format: functional; settings: route intraperitoneal
Rattus norvegicus [40] = test: Effect on behavioural activity in rat assessed as cocaine-induced lever response at 10 mg/kg, ip pretreated with cocaine for 15 mins by drug-discrimination studies; format: functional; settings: route intraperitoneal

Compound | ED50 (Rattus norvegicus [1]) | Activity (Rattus norvegicus [2]) | Activity (Rattus norvegicus [6]) | Activity (Rattus norvegicus [7]) | Activity (Rattus norvegicus [8]) | Activity (Rattus norvegicus [9]) | Activity (Rattus norvegicus [10]) | Activity (Rattus norvegicus [11]) | Activity (Rattus norvegicus [12]) | Activity (Rattus norvegicus [13]) | Activity (Rattus norvegicus [14]) | Activity (Rattus norvegicus [15]) | Activity (Rattus norvegicus [16]) | Activity (Rattus norvegicus [17]) | ED50 (Mus musculus [18]) | Activity (Mus musculus [19]) | Time to peak locomotor stimulation (Mus musculus [20]) | Time (Mus musculus [21]) | ED50 (Rattus norvegicus [22]) | Activity (Rattus norvegicus [23]) | other results
CCCC(NC(C)(C)C)C(=O)c1ccc(Cl)c(Cl)c1 (centres undefined) | 3.9 mg/kg | 17% | 0% | 13% | 0% | 0% | 33% | 0% | 5% | 0% | 58% | 84% | 17% | 0% | 38 mg/kg | 93% | 0 min | 470 min | 22.8 mg/kg | 0% | Activity (Rattus norvegicus [3]): 0%; Activity (Rattus norvegicus [4]): 0%; Activity (Rattus norvegicus [5]): 0%; Activity (Rattus norvegicus [24]): 41.8%; Activity (Rattus norvegicus [25]): 33.3%; Activity (Rattus norvegicus [26]): 33.3%; Activity (Rattus norvegicus [27]): 100%
Cc1ccc(C(=O)C(C)NC(C)(C)C)cc1 (centres undefined) | 17.3 mg/kg | – | – | – | – | – | – | – | – | – | – | – | – | – | 3.8 mg/kg | 26% | 30 min | 60 min | – | – | Ki [28]: > 10 µM; Ki [29]: > 10 µM; Activity (Rattus norvegicus [30]): 0.6%; Activity (Rattus norvegicus [31]): 16.7%; Activity (Rattus norvegicus [32]): 66.7%; Activity (Rattus norvegicus [33]): 100%
CCC(NC(C)(C)C)C(=O)c1ccc(Cl)c(Cl)c1 (centres undefined) | 6.3 mg/kg | 33% | 17% | – | 0% | 0% | 34% | 0% | 0% | 2% | 50% | 33% | 2% | 33% | 38 mg/kg | 69% | 0 min | 60 min | 15.2 mg/kg | 0% | Activity (Rattus norvegicus [3]): 17%; Activity (Rattus norvegicus [4]): 50%; Activity (Rattus norvegicus [5]): 17%; Activity (Rattus norvegicus [34]): 83%; Activity (Rattus norvegicus [35]): 67%; Activity (Rattus norvegicus [36]): 50%; Activity (Rattus norvegicus [37]): 16%; Activity (Rattus norvegicus [24]): 33.3%; Activity (Rattus norvegicus [25]): 16.7%; Activity (Rattus norvegicus [27]): 100%
CC(NC1CCCC1)C(=O)c1cccc(Cl)c1 (centres undefined) | 10.9 mg/kg | 17% | 50% | 0% | 0% | 0% | 60% | 33% | 0% | – | 67% | 67% | – | 34% | 12.3 mg/kg | 107% | 0 min | 330 min | 6.6 mg/kg | 0.9% | Activity (Rattus norvegicus [34]): 100%; Activity (Rattus norvegicus [36]): 33%; Activity (Rattus norvegicus [37]): 16%; Ki [29]: > 10 µM; Activity (Rattus norvegicus [24]): 23.9%; Activity (Rattus norvegicus [25]): 0%; Activity (Rattus norvegicus [26]): 66.2%; Activity (Rattus norvegicus [27]): 83.4%
CC(NC(C)(C)C)C(=O)c1cccc(Cl)c1 (centres undefined) [BUPROPION] | – | – | 33% | 0% | 2.5% | – | 17% | 1% | 0% | 0% | 50% | 0% | 22% | 1% | 5.5 mg/kg | 87% | 0 min | 130 min | 22.8 mg/kg | – | Activity (Rattus norvegicus [34]): 83%; Activity (Rattus norvegicus [35]): 50%; Activity (Rattus norvegicus [36]): 17%; Activity (Rattus norvegicus [37]): 0%; Activity (Rattus norvegicus [38]): 24.1%; Activity (Rattus norvegicus [39]): 0.7%; Activity (Rattus norvegicus [30]): 0%; Activity (Rattus norvegicus [40]): 67.1%; Activity (Rattus norvegicus [31]): 66.3%; Activity (Rattus norvegicus [32]): 66.7%
